Source: ChEMBL document CHEMBL1201862, “PubChem BioAssay data set” (2004)
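Briefly, cells in 96-well plates were exposed to five compound concentrations for 48 h, and endpoints were estimated by linear interpolation. Abbreviation: GI50, concentration required for 50% inhibition of growth.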 Activity calls are given as the source filed them. No stated cut-off is given here; in the data, active = GI50 up to about 1.1 µM and inactive = higher.

Legend:
Assay in all cases: NCI anticancer screen, dose series, 48 h
[1] = test system: RPMI-8226
[2] = test system: HOP-62
[3] = test system: HT-29
[4] = test system: U-251
[5] = test system: CCRF-CEM
[6] = test system: COLO 205
[7] = test system: NCI-H460
[8] = test system: SF-268
[9] = test system: HCT-116
[10] = test system: NCI-H23
[11] = test system: SN12C
[12] = test system: KM12
[13] = test system: UO-31
[14] = test system: SK-MEL-28
[15] = test system: SW-620
[16] = test system: HOP-92
[17] = test system: K562
[18] = test system: UACC-62
[19] = test system: SK-MEL-2
[20] = test system: HCT-15

Structure (SMILES) | GI50 [1] | GI50 [2] | GI50 [3] | GI50 [4] | GI50 [5] | GI50 [6] | GI50 [7] | GI50 [8] | GI50 [9] | GI50 [10] | GI50 [11] | GI50 [12] | GI50 [13] | GI50 [14] | GI50 [15] | GI50 [16] | GI50 [17] | GI50 [18] | GI50 [19] | GI50 [20] [µM]
COC(=O)[C@@H]1CN(C(=O)Cc2ccccc2)C(=O)N1 | > 100 µM (inactive) | > 100 µM (inactive) | > 100 µM (inactive) | > 100 µM (inactive) | > 100 µM (inactive) | > 100 µM (inactive) | > 100 µM (inactive) | > 100 µM (inactive) | > 100 µM (inactive) | > 100 µM (inactive) | > 100 µM (inactive) | > 100 µM (inactive) | > 100 µM (inactive) | > 100 µM (inactive) | > 100 µM (inactive) | > 100 µM (inactive) | > 100 µM (inactive) | > 100 µM (inactive) |  | 
CC(C)(C)[Si](C)(C)OC[C@H](/C=C\CCCC(=O)O)NC1(c2ccccc2)c2ccccc2-c2ccccc21 | 4.17 µM (inactive) | 15.2 µM (inactive) | 13.2 µM (inactive) | 14.4 µM (inactive) |  | 13.6 µM (inactive) | 15.1 µM (inactive) | 13.9 µM (inactive) | 7.29 µM (inactive) | 14.7 µM (inactive) | 11.6 µM (inactive) | 15.5 µM (inactive) | 19.3 µM (inactive) | 16.7 µM (inactive) | 22.5 µM (inactive) | 11.1 µM (inactive) | 5.18 µM (inactive) | 12.6 µM (inactive) | 11.9 µM (inactive) | 11.2
CCOP(=O)(CCC(O)CNc1nc(N)nc(Cl)c1/N=N/c1ccc(Cl)cc1)OCC (centres undefined) | 8.47 µM (inactive) | 12.5 µM (inactive) | 15.3 µM (inactive) | 11 µM (inactive) | 5.75 µM (inactive) | 12.8 µM (inactive) | 11.1 µM (inactive) | 15.3 µM (inactive) | 14.7 µM (inactive) | 17 µM (inactive) | 17.2 µM (inactive) | 19.1 µM (inactive) | 4.1 µM (inactive) | 11.6 µM (inactive) | 15.9 µM (inactive) | 0.377 µM (active) | 13.6 µM (inactive) | 13 µM (inactive) | 11.6 µM (inactive) | 6.95
CCCC1(N)CC(OC)OC(C)C1O (centres undefined) | > 100 µM (inactive) | > 100 µM (inactive) | > 100 µM (inactive) | > 100 µM (inactive) | > 100 µM (inactive) | > 100 µM (inactive) | > 100 µM (inactive) | > 100 µM (inactive) | > 100 µM (inactive) | > 100 µM (inactive) | > 100 µM (inactive) | > 100 µM (inactive) | > 100 µM (inactive) | > 100 µM (inactive) | > 100 µM (inactive) | > 100 µM (inactive) | > 100 µM (inactive) | > 100 µM (inactive) | > 100 µM (inactive) | > 100
Cc1cc(S(=O)(=O)O)c(NC(=O)C(=O)C2C=CCS2(=O)=O)cc1Cl (centres undefined) | > 100 µM (inactive) | > 100 µM (inactive) | > 100 µM (inactive) | > 100 µM (inactive) | > 100 µM (inactive) | > 100 µM (inactive) | > 100 µM (inactive) | > 100 µM (inactive) | > 100 µM (inactive) | > 100 µM (inactive) | > 100 µM (inactive) | > 100 µM (inactive) | > 100 µM (inactive) | > 100 µM (inactive) | > 100 µM (inactive) | > 100 µM (inactive) | > 100 µM (inactive) | > 100 µM (inactive) | > 100 µM (inactive) | > 100
COC1C(=[N+]=[N-])C(=O)NC(=O)N1C1OC(COC(c2ccccc2)(c2ccccc2)c2ccccc2)C(O)C1O (centres undefined) | 25.2 µM (inactive) | 22.7 µM (inactive) | 18.7 µM (inactive) | 19.7 µM (inactive) | 16.5 µM (inactive) | 19.6 µM (inactive) | 25.4 µM (inactive) | 18.1 µM (inactive) | 18.2 µM (inactive) | 18.2 µM (inactive) | 16.3 µM (inactive) | 16.9 µM (inactive) | 18.2 µM (inactive) | 16.4 µM (inactive) | 18.5 µM (inactive) |  | 19.7 µM (inactive) | 15.1 µM (inactive) | 19.1 µM (inactive) | 18
CCOC(=O)C(C(C)=O)C1CC=CC1 (centres undefined) | > 100 µM (inactive) | > 100 µM (inactive) | > 100 µM (inactive) | > 100 µM (inactive) | > 100 µM (inactive) | > 100 µM (inactive) | > 100 µM (inactive) |  | > 100 µM (inactive) |  | > 100 µM (inactive) | > 100 µM (inactive) | > 100 µM (inactive) | > 100 µM (inactive) | > 100 µM (inactive) | > 100 µM (inactive) | > 100 µM (inactive) | > 100 µM (inactive) | > 100 µM (inactive) | > 100
O=C(Cc1ccccc1)NN1C(=O)/C(=C\c2cccc(O)c2)S/C1=N\c1ccccc1 |  | > 100 µM (inactive) | > 100 µM (inactive) | > 100 µM (inactive) |  | > 100 µM (inactive) | > 100 µM (inactive) | > 100 µM (inactive) | > 100 µM (inactive) | > 100 µM (inactive) | > 100 µM (inactive) | > 100 µM (inactive) | 55.8 µM (inactive) | > 100 µM (inactive) | > 100 µM (inactive) |  |  | > 100 µM (inactive) | > 100 µM (inactive) | > 100
CO/C(=N\N=C\c1ccc(Cl)c(Cl)c1)c1ccncc1 | > 10 µM (inactive) | > 10 µM (inactive) |  | > 10 µM (inactive) | > 10 µM (inactive) | > 10 µM (inactive) | > 10 µM (inactive) | > 10 µM (inactive) | > 10 µM (inactive) | > 10 µM (inactive) | > 10 µM (inactive) | > 10 µM (inactive) | > 10 µM (inactive) | > 10 µM (inactive) | > 10 µM (inactive) | 4.26 µM (inactive) | > 10 µM (inactive) |  | > 10 µM (inactive) | > 10
O=c1[nH]c(=O)n(C2CC(O)C(CO)O2)cc1C#Cc1cc(C(F)(F)F)cc(C(F)(F)F)c1 (centres undefined) | > 29.6 µM (inactive) | > 68.1 µM (inactive) | > 31.8 µM (inactive) | 18 µM (inactive) | > 100 µM (inactive) | > 21.3 µM (inactive) |  | 43.9 µM (inactive) | > 22.8 µM (inactive) | 24.4 µM (inactive) | > 27.9 µM (inactive) | > 30.8 µM (inactive) | > 30.6 µM (inactive) | > 31.7 µM (inactive) | > 30.2 µM (inactive) | 33.8 µM (inactive) | > 100 µM (inactive) | > 25.6 µM (inactive) | > 36.9 µM (inactive) | > 50.7
COc1ccc(N2C(=O)c3c(c4[nH]c5ccc(OC)cc5c4c4ccc(C(C)(C)C)cc34)C2=O)cc1 | > 100 µM (inactive) | > 100 µM (inactive) | > 100 µM (inactive) | > 100 µM (inactive) | > 100 µM (inactive) | > 100 µM (inactive) | > 100 µM (inactive) | > 100 µM (inactive) | > 100 µM (inactive) | > 100 µM (inactive) | > 100 µM (inactive) | > 100 µM (inactive) | > 100 µM (inactive) | > 100 µM (inactive) |  | > 100 µM (inactive) | > 100 µM (inactive) |  | > 100 µM (inactive) | > 100
O=c1cc(-c2nc3ccccc3[nH]2)[nH]c2nc(-c3nc4ccccc4[nH]3)cc(-c3ccc(Cl)cc3)c12 | 11.5 µM (inactive) | 24.4 µM (inactive) | 20 µM (inactive) | 16.1 µM (inactive) | 24.7 µM (inactive) | 12.1 µM (inactive) | 16.3 µM (inactive) | 15.8 µM (inactive) | 17 µM (inactive) | 40.2 µM (inactive) | 16.5 µM (inactive) | 22 µM (inactive) | 11.2 µM (inactive) |  | 21.5 µM (inactive) | 5.52 µM (inactive) | 16.1 µM (inactive) | 14 µM (inactive) | 12.2 µM (inactive) | 10
NC12CCC(CC1=O)C2 (centres undefined) | > 100 µM (inactive) | > 100 µM (inactive) | > 100 µM (inactive) | > 100 µM (inactive) | > 100 µM (inactive) | > 100 µM (inactive) |  | > 100 µM (inactive) | > 100 µM (inactive) | > 100 µM (inactive) | > 100 µM (inactive) | > 100 µM (inactive) | > 100 µM (inactive) | > 100 µM (inactive) | > 100 µM (inactive) | > 100 µM (inactive) | > 100 µM (inactive) | > 100 µM (inactive) | > 100 µM (inactive) | > 100
OC[C@@H](O)[C@H]1NC[C@@H](O)[C@H]1O | > 100 µM (inactive) | > 100 µM (inactive) | > 100 µM (inactive) | > 100 µM (inactive) | > 100 µM (inactive) | > 100 µM (inactive) | > 100 µM (inactive) | > 100 µM (inactive) | > 100 µM (inactive) | > 100 µM (inactive) | > 100 µM (inactive) | > 100 µM (inactive) | > 100 µM (inactive) | > 100 µM (inactive) | > 100 µM (inactive) | > 100 µM (inactive) |  | > 100 µM (inactive) |  | > 100
Cc1ccc(Nc2nc(=O)c3c([nH]c4ccccc43)s2)cc1 | 4.21 µM (inactive) | 10.2 µM (inactive) | 10.8 µM (inactive) | 12.8 µM (inactive) | 20.1 µM (inactive) | 10.9 µM (inactive) | 10.1 µM (inactive) | 16.7 µM (inactive) |  |  | 15 µM (inactive) | 3.43 µM (inactive) | 2.9 µM (inactive) | 21.2 µM (inactive) | 10.8 µM (inactive) | 10.1 µM (inactive) | 6.27 µM (inactive) | 3.84 µM (inactive) | 14.2 µM (inactive) | 7.55
